From patent US20240092835A1, “NOVEL PEPTIDES CAPABLE OF ALTERING NK CELL ACTIVITY” (Massachusetts Institute of Technology, priority 2022, published 2024)

Legend:
NKG2A+/NKG2C− NK cells = assay: NK cell activation markers in NKG2A+/NKG2C- NK cells incubated with peptide and K562 expressing HLA-E (inhibition); type: cell-based, human; details: for effect on NKG2A+/NKG2C− NK cell inhibition (in words): K562 expressing HLA-E, CD107a, IFNG, TNF, CCL3; for percentage of CCL3+ NK cells / percentage of CD107a+ NK cells / percentage of IFNG+ NK cells / percentage of TNF+ NK cells: NKG2A+/NKG2C- NK cells, K562/HLA-E
Method: (§1) A human immortalized myelogenous leukemia cell line (K562), which expresses HLA-E was incubated with novel peptides (Table 1) derived from the human proteome or human cytomegalovirus proteome. […] Controls assessments were also performed using NKG2A−/NKG2C− cells (Tables 10-13). Inhibition was indicated by a decrease in percent cells positive for cell surface markers, while activation was indicated by an increase in percent cells positive for cell surface markers.

NKG2A−/NKG2C+ NK cells = assay: NK cell activation markers in NKG2A-/NKG2C+ NK cells incubated with peptide and K562 expressing HLA-E (activation); type: cell-based, human; details: for effect on NKG2A−/NKG2C+ NK cell activation (in words): K562 expressing HLA-E, CD107a, IFNG, TNF, CCL3; for percentage of CCL3+ NK cells / percentage of CD107+ NK cells / percentage of IFNG+ NK cells / percentage of TNF+ NK cells: NKG2A-/NKG2C+ NK cells, K562/HLA-E
Method: as §1

NKG2A−/NKG2C− NK cells = assay: NK cell activation markers in control NKG2A-/NKG2C- NK cells incubated with peptide and K562 expressing HLA-E; type: cell-based, human
Method: as §1

HLA-E = biological target: T1, HLA-E (Homo sapiens, UniProt P13747); assay: HLA-E surface stabilization assay with RMA-S/HLA-E cells; type: cell-based; details: 30 μM peptide, 16 hours; for HLA-E surface expression stability (GeoMFI): anti-HLA-E antibody
T1 construct: expressed in transfected cells; host or cells: RMA-S/HLA-E cells (antigen processing-defective lymphoma cell line)
Method: HLA-E surface expression was assessed by measuring geometric mean fluorescence intensity (GeoMFI) in RMA-S cells following immunofluorescence staining with an anti-HLA-E antibody (Table 14). Increased GeoMFI was indicative of increased HLA-E surface expression stability following novel peptide exposures (FIG. 3).

T1 sequence (P13747 22-358): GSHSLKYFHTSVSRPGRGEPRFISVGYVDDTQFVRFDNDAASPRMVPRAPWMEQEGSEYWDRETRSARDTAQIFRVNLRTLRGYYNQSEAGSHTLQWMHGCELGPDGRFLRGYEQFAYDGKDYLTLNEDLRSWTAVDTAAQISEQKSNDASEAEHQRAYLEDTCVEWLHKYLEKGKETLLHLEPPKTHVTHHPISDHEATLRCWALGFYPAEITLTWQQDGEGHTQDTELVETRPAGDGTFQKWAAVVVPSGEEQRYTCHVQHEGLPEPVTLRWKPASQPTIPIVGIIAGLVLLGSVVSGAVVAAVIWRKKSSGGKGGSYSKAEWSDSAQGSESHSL
T1 sequence (P61769 21-119 partner): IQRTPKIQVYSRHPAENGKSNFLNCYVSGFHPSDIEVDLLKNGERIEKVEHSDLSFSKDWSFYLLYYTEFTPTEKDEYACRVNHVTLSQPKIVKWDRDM

## ILTDRSLWL [human4, peptide FBXO41 670-678 derived from the human proteome]
NKG2A+/NKG2C− NK cells
  effect on NKG2A+/NKG2C− NK cell inhibition (in words): mild inhibitory effects
NKG2A+/NKG2C− NK cells; Trial 1
  percentage of CCL3+ NK cells: 35.5%
  percentage of CD107a+ NK cells: 16.9%
  percentage of IFNG+ NK cells: 5.47%
  percentage of TNF+ NK cells: 1.97%
NKG2A+/NKG2C− NK cells; Trial 2
  percentage of CCL3+ NK cells: 56.4%
  percentage of CD107a+ NK cells: 23.7%
  percentage of IFNG+ NK cells: 8.81%
  percentage of TNF+ NK cells: 4.06%
NKG2A+/NKG2C− NK cells; Trial 3
  percentage of CCL3+ NK cells: 34.7%
  percentage of CD107a+ NK cells: 22%
  percentage of IFNG+ NK cells: 13.3%
  percentage of TNF+ NK cells: 7.29%
NKG2A+/NKG2C− NK cells; Trial 4
  percentage of CCL3+ NK cells: 16.1%
  percentage of CD107a+ NK cells: 15%
  percentage of IFNG+ NK cells: 3.31%
  percentage of TNF+ NK cells: 2.82%
NKG2A+/NKG2C− NK cells; Trial 5
  percentage of CCL3+ NK cells: 32.7%
  percentage of CD107a+ NK cells: 14.8%
  percentage of IFNG+ NK cells: 6.82%
  percentage of TNF+ NK cells: 3.39%
NKG2A+/NKG2C− NK cells; Trial 6
  percentage of CCL3+ NK cells: 13.4%
  percentage of CD107a+ NK cells: 12.8%
  percentage of IFNG+ NK cells: 3.02%
  percentage of TNF+ NK cells: 2.79%
NKG2A−/NKG2C+ NK cells
  effect on NKG2A−/NKG2C+ NK cell activation (in words): strong activating effects
NKG2A−/NKG2C+ NK cells; Trial 1
  percentage of CCL3+ NK cells: 77.9%
  percentage of CD107+ NK cells: 76.7%
  percentage of IFNG+ NK cells: 62.2%
  percentage of TNF+ NK cells: 49.6%
NKG2A−/NKG2C+ NK cells; Trial 2
  percentage of CCL3+ NK cells: 87.9%
  percentage of CD107+ NK cells: 79.5%
  percentage of IFNG+ NK cells: 70.5%
  percentage of TNF+ NK cells: 57.3%
NKG2A−/NKG2C+ NK cells; Trial 3
  percentage of CCL3+ NK cells: 84.4%
  percentage of CD107+ NK cells: 84.8%
  percentage of IFNG+ NK cells: 75.9%
  percentage of TNF+ NK cells: 65.5%
NKG2A−/NKG2C+ NK cells; Trial 4
  percentage of CCL3+ NK cells: 74%
  percentage of CD107+ NK cells: 73.4%
  percentage of IFNG+ NK cells: 66.6%
  percentage of TNF+ NK cells: 57.4%
NKG2A−/NKG2C+ NK cells; Trial 5
  percentage of CCL3+ NK cells: 81.2%
  percentage of CD107+ NK cells: 77.9%
  percentage of IFNG+ NK cells: 70.4%
  percentage of TNF+ NK cells: 64.7%
NKG2A−/NKG2C+ NK cells; Trial 6
  percentage of CCL3+ NK cells: 64.6%
  percentage of CD107+ NK cells: 64.2%
  percentage of IFNG+ NK cells: 54%
  percentage of TNF+ NK cells: 43%
NKG2A−/NKG2C− NK cells; Trial 1
  percentage CCL3+ NK cells: 37.2%
  percentage CD107+ NK cells: 27.2%
  percentage TNF+ NK cells: 3.99%
  percentage of IFNG+ NK cells: 15.4%
NKG2A−/NKG2C− NK cells; Trial 2
  percentage CCL3+ NK cells: 56.3%
  percentage CD107+ NK cells: 33.5%
  percentage TNF+ NK cells: 7.5%
  percentage of IFNG+ NK cells: 20.8%
NKG2A−/NKG2C− NK cells; Trial 3
  percentage CCL3+ NK cells: 48.3%
  percentage CD107+ NK cells: 44%
  percentage TNF+ NK cells: 13.8%
  percentage of IFNG+ NK cells: 33.7%
NKG2A−/NKG2C− NK cells; Trial 4
  percentage CCL3+ NK cells: 35.9%
  percentage CD107+ NK cells: 32.1%
  percentage TNF+ NK cells: 10.2%
  percentage of IFNG+ NK cells: 19.3%
NKG2A−/NKG2C− NK cells; Trial 5
  percentage CCL3+ NK cells: 25%
  percentage CD107+ NK cells: 19.2%
  percentage TNF+ NK cells: 5.02%
  percentage of IFNG+ NK cells: 13.7%
NKG2A−/NKG2C− NK cells; Trial 6
  percentage CCL3+ NK cells: 25.1%
  percentage CD107+ NK cells: 22.6%
  percentage TNF+ NK cells: 5.37%
  percentage of IFNG+ NK cells: 12.1%
HLA-E; Trial 1
  HLA-E surface expression stability (GeoMFI): 1174 GeoMFI
HLA-E; Trial 2
  HLA-E surface expression stability (GeoMFI): 921 GeoMFI
HLA-E; Trial 3
  HLA-E surface expression stability (GeoMFI): 887 GeoMFI
HLA-E; Trial 4
  HLA-E surface expression stability (GeoMFI): 1378 GeoMFI
HLA-E; approximate value
  HLA-E surface expression stabilization strength, approximate GeoMFI: approximately 1×10^3 GeoMFI

## RMPPRSVLL [human12]
NKG2A+/NKG2C− NK cells
  effect on NKG2A+/NKG2C− NK cell inhibition (in words): strong inhibitory
NKG2A+/NKG2C− NK cells; Trial 1
  percentage of CCL3+ NK cells: 1.94%
  percentage of CD107a+ NK cells: 0.85%
  percentage of IFNG+ NK cells: 0.14%
  percentage of TNF+ NK cells: 0.03%
NKG2A+/NKG2C− NK cells; Trial 2
  percentage of CCL3+ NK cells: 2.96%
  percentage of CD107a+ NK cells: 0.99%
  percentage of IFNG+ NK cells: 0.32%
  percentage of TNF+ NK cells: 0.17%
NKG2A+/NKG2C− NK cells; Trial 3
  percentage of CCL3+ NK cells: 2.9%
  percentage of CD107a+ NK cells: 1.25%
  percentage of IFNG+ NK cells: 0.65%
  percentage of TNF+ NK cells: 0.45%
NKG2A−/NKG2C+ NK cells; listed as SEQ ID NO. 13
  effect on NKG2A−/NKG2C+ NK cell activation (in words): strong activating effects
NKG2A−/NKG2C+ NK cells; listed as h12
  effect on NKG2A−/NKG2C+ NK cell activation (in words): strong inhibitory and activating effects
NKG2A−/NKG2C+ NK cells; Trial 1
  percentage of CCL3+ NK cells: 55.3%
  percentage of CD107+ NK cells: 36.5%
  percentage of IFNG+ NK cells: 20.7%
  percentage of TNF+ NK cells: 12.6%
NKG2A−/NKG2C+ NK cells; Trial 2
  percentage of CCL3+ NK cells: 83.9%
  percentage of CD107+ NK cells: 77%
  percentage of IFNG+ NK cells: 63.3%
  percentage of TNF+ NK cells: 52.7%
NKG2A−/NKG2C+ NK cells; Trial 3
  percentage of CCL3+ NK cells: 81.7%
  percentage of CD107+ NK cells: 80.3%
  percentage of IFNG+ NK cells: 66.3%
  percentage of TNF+ NK cells: 59.6%
NKG2A−/NKG2C− NK cells; Trial 1
  percentage CCL3+ NK cells: 29.3%
  percentage CD107+ NK cells: 20.2%
  percentage TNF+ NK cells: 3.43%
  percentage of IFNG+ NK cells: 10.2%
NKG2A−/NKG2C− NK cells; Trial 2
  percentage CCL3+ NK cells: 51.6%
  percentage CD107+ NK cells: 29%
  percentage TNF+ NK cells: 9.58%
  percentage of IFNG+ NK cells: 24%
NKG2A−/NKG2C− NK cells; Trial 3
  percentage CCL3+ NK cells: 46.5%
  percentage CD107+ NK cells: 42%
  percentage TNF+ NK cells: 15.5%
  percentage of IFNG+ NK cells: 36.2%
HLA-E; Trial 1
  HLA-E surface expression stability (GeoMFI): 3779 GeoMFI
HLA-E; Trial 2
  HLA-E surface expression stability (GeoMFI): 4219 GeoMFI
HLA-E; Trial 3
  HLA-E surface expression stability (GeoMFI): 4273 GeoMFI
HLA-E; Trial 4
  HLA-E surface expression stability (GeoMFI): 4705 GeoMFI
